The record followed here is patent publication US12310975B2, “Modulators of BCL6 proteolysis and associated methods of use” (Arvinas Operations, Inc., priority 2019, dated 2025).

The structures appear in SMILES notation.

The target in test [1] is T1, BCL6 (Homo sapiens (Human), UniProt P41182). The test is described as follows: BCL6 TR-FRET assay (BCL6-Avitag-Biotin / BCoR-Cy5 peptide). Type of test: binding. A digest of the protocol: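 After 30 min room-temperature preincubation of compound titrations with 2 nM biotinylated BCL6-Avitag, 100 nM Cy5-labelled BCoR peptide plus 2 nM Eu-streptavidin were added and TR-FRET read 2 h later. HEPES pH 7.5/125 mM NaCl buffer with Triton X, glutathione (or DTT) and BSA.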
A general note: In TR-FRET formats the signal depends on donor and acceptor labels being close together.

Test [2] addresses T1, BCL6. The test is described as follows: Immunofluorescence high content imaging of BCL6 degradation in T47D cells. Type of test: cell-based. As to conditions: for Dmax: T47D; for DC50: class symbols A-D, read-out: EC50 (nM)*. A digest of the protocol: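 T47D, 3 d compound exposure, 11-pt 3-fold series, top 0.1 or 1 μM final. Fix 4% PFA, Triton permeabilize, anti-BCL6 primary overnight 4 °C, Alexa-488 secondary. High-content imaging 10×, 4 fields/well, top-hat smoothing.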

Setting [3] is: class symbols A-D, read-out: IC50 (nM)***.

For `CNC(=O)COc1cc2cc(Nc3nc(N4CCC(O[C@@H]5C[C@@H](COc6ccc7c(c6)C(=O)N(C6CCC(=O)NC6=O)C7=O)N(C)C5)CC4)ncc3Cl)ccc2n(C(C)C)c1=O` (stereo partly drawn) [compound 463, 2-[(6-{[5-chloro-2-(4-{[(3R,5S)-5-({[2-(2,6-dioxopiperidin-3-yl)-1,3-dioxo-2,3-dihydro-1H-isoindol-5-yl]oxy}methyl)-1-methylpyrrolidin-3-yl]oxy}piperidin-1-yl)pyrimidin-4-yl]amino}-2-oxo-1-(propan-2-yl)-1,2-dihydroquinolin-3-yl)oxy]-N-methylacetamide], in test [1] (read-out: IC50), the IC50 (commonly the point on the concentration scale where inhibition reaches its midpoint) fell in the range of 10 to 50 nM. For the same compound, the Dmax (as a rule, the greatest extent of degradation seen) in test [2] is below 50%.

Turning to `CNC(=O)COc1cc2cc(Nc3nc(N4CCN(C[C@H]5C[C@H](N6CCN(c7cccc8c7C(=O)N(C7CCC(=O)NC7=O)C8=O)CC6)C5)CC4)ncc3Cl)ccc2n(C(C)C)c1=O` (some centres unmarked) [compound 537, 2-[(6-{[5-chloro-2-(4-{[(1r,3r)-3-{4-[2-(2,6-dioxopiperidin-3-yl)-1,3-dioxo-2,3-dihydro-1H-isoindol-4-yl]piperazin-1-yl}cyclobutyl]methyl}piperazin-1-yl)pyrimidin-4-yl]amino}-2-oxo-1-(propan-2-yl)-1,2-dihydroquinolin-3-yl)oxy]-N-methylacetamide], the IC50 in test [1] (read-out: IC50) was below 10 nM. In addition, the Dmax in test [2] was below 50%.

`CNC(=O)COc1cc2cc(Nc3nc(N4CCN(CC5CCC6(CC5)CN(c5cc(F)cc7c5C(=O)N(C5CCC(=O)NC5=O)C7=O)C6)CC4)ncc3Cl)ccc2n(C(C)C)c1=O` (centres unmarked) [compound 540, 2-{[6-({5-chloro-2-[4-({2-[2-(2,6-dioxopiperidin-3-yl)-6-fluoro-1,3-dioxo-2,3-dihydro-1H-isoindol-4-yl]-2-azaspiro[3.5]nonan-7-yl}methyl)piperazin-1-yl]pyrimidin-4-yl}amino)-2-oxo-1-(propan-2-yl)-1,2-dihydroquinolin-3-yl]oxy}-N-methylacetamide]: the IC50 in test [1] (read-out: IC50) is below 10 nM. This compound registered a maximal degradation (Dmax) in test [2] of at least 70%.

With `CC(=O)COc1cc2cc(Nc3nc(N4CCN(CC5CCN(c6ccc7c(c6)C(=O)N(C6CCC(=O)NC6=O)C7=O)CC5)CC4)ncc3Cl)ccc2n(C)c1=O` (centres unmarked) [compound 148, 5-(4-((4-(5-chloro-4-((1-methyl-2-oxo-3-(2-oxopropoxy)-1,2-dihydroquinolin-6-yl)amino)pyrimidin-2-yl)piperazin-1-yl)methyl)piperidin-1-yl)-2-(2,6-dioxopiperidin-3-yl)isoindoline-1,3-dione], in test [1] (setting [3]), the IC50 was below 10 nM. Besides, the Dmax in test [2] (maximum, class symbols A-C) was 50 to 70%. The DC50 in test [2] lay within 10 to 50 nM.

`CN(C)C(=O)COc1cc2cc(Nc3nc(N4CCC(CN5CCN(c6ccc7c(c6)C(=O)N(C6CCC(=O)NC6=O)C7=O)CC5)CC4)ncc3Cl)ccc2n(C)c1=O` (centres unmarked) [compound 166, 2-((6-((5-chloro-2-(4-((4-(2-(2,6-dioxopiperidin-3-yl)-1,3-dioxoisoindolin-5-yl)piperazin-1-yl)methyl)piperidin-1-yl)pyrimidin-4-yl)amino)-1-methyl-2-oxo-1,2-dihydroquinolin-3-yl)oxy)-N,N-dimethylacetamide]: the IC50 in test [1] (setting [3]) was in the range of 50 to 100 nM. Moreover, the Dmax in test [2] (maximum, class symbols A-C) was below 50%. In addition, the DC50 in test [2] was above 100 nM.

On to `CNC(=O)COc1cc2cc(Nc3nc(N4CCN(CC5CC6(CCN(c7cccc8c7C(=O)N(C7CCC(=O)NC7=O)C8=O)CC6)C5)CC4)ncc3Cl)ccc2n(C(C)C)c1=O` (centres unmarked) [compound 517, 2-{[6-({5-chloro-2-[4-({7-[2-(2,6-dioxopiperidin-3-yl)-1,3-dioxo-2,3-dihydro-1H-isoindol-4-yl]-7-azaspiro[3.5]nonan-2-yl}methyl)piperazin-1-yl]pyrimidin-4-yl}amino)-2-oxo-1-(propan-2-yl)-1,2-dihydroquinolin-3-yl]oxy}-N-methylacetamide], for which the IC50 in test [1] (read-out: IC50) was below 10 nM. The Dmax in test [2] is at least 70%.

As to `Cn1c(=O)ccc2cc(Nc3nc(N4CCC(CN5CCN(c6ccc7c(c6)C(=O)N(C6CCC(=O)NC6=O)C7=O)CC5)CC4)ncc3Cl)ccc21` (centres unmarked) [compound 150, 5-(4-((1-(5-chloro-4-((1-methyl-2-oxo-1,2-dihydroquinolin-6-yl)amino)pyrimidin-2-yl)piperidin-4-yl)methyl)piperazin-1-yl)-2-(2,6-dioxopiperidin-3-yl)isoindoline-1,3-dione], the IC50 in test [1] (setting [3]) is at least 100 nM. Besides, in test [2], the DC50 is above 100 nM.

For the compound `CNC(=O)COc1cc2cc(Nc3nc(N4CCC(N(C)C5CCN(CC6CCN(c7ccc(C#Cc8ccc9c(c8)CN(C8CCC(=O)NC8=O)C9=O)cc7)CC6)CC5)CC4)ncc3Cl)ccc2n(C)c1=O` (centres unmarked) [compound 138, 2-((6-((5-chloro-2-(4-((1-((1-(4-((2-(2,6-dioxopiperidin-3-yl)-1-oxoisoindolin-5-yl)ethynyl)phenyl)piperidin-4-yl)methyl)piperidin-4-yl) (methyl)amino)piperidin-1-yl)pyrimidin-4-yl)amino)-1-methyl-2-oxo-1,2-dihydroquinolin-3-yl)oxy)-N-methylacetamide], in test [1] (setting [3]), the IC50 is below 10 nM. This compound also returned a Dmax in test [2] (maximum, class symbols A-C) below 50%. The DC50 in test [2] was 10 to 50 nM.

Turning to `CNC(=O)COc1cc2cc(Nc3nc(N4CCO[C@H](COc5ccc6c(c5)C(=O)N(C5CCC(=O)NC5=O)C6=O)C4)ncc3Cl)ccc2n(C)c1=O` (stereo partly drawn) [compound 228, 2-((6-((5-chloro-2-((2S)-2-(((2-(2,6-dioxopiperidin-3-yl)-1,3-dioxoisoindolin-5-yl)oxy)methyl)morpholino)pyrimidin-4-yl)amino)-1-methyl-2-oxo-1,2-dihydroquinolin-3-yl)oxy)-N-methylacetamide], the concentration for a half-maximal effect (EC50) (usually the concentration needed to bring the measured effect to its halfway point) in test [1] is above 100 nM. In test [2], this compound displayed an IC50 of at least 100 nM and a Dmax of 50 to 70%.

Take `CC(=O)COc1cc2cc(Nc3nc(N4CCC(CCOC5CN(c6ccc7c(c6)C(=O)N(C6CCC(=O)NC6=O)C7=O)C5)CC4)ncc3Cl)ccc2n(C)c1=O` (centres unmarked) [compound 164, 5-(3-(2-(1-(5-chloro-4-((1-methyl-2-oxo-3-(2-oxopropoxy)-1,2-dihydroquinolin-6-yl)amino)pyrimidin-2-yl)piperidin-4-yl)ethoxy)azetidin-1-yl)-2-(2,6-dioxopiperidin-3-yl)isoindoline-1,3-dione]: the IC50 in test [1] (setting [3]) lay within 10 to 50 nM. This compound registered a Dmax in test [2] (maximum, class symbols A-C) below 50%. In test [2], the DC50 was above 100 nM.

Regarding `CNC(=O)COc1cc2cc(Nc3nc(N4CCC5(CCN(CC6CCN(c7cccc8c7C(=O)N(C7CCC(=O)NC7=O)C8=O)CC6)CC5)CC4)ncc3Cl)ccc2n(C(C)C)c1=O` (centres unmarked) [compound 533, 2-{[6-({5-chloro-2-[9-({1-[2-(2,6-dioxopiperidin-3-yl)-1,3-dioxo-2,3-dihydro-1H-isoindol-4-yl]piperidin-4-yl}methyl)-3,9-diazaspiro[5.5]undecan-3-yl]pyrimidin-4-yl}amino)-2-oxo-1-(propan-2-yl)-1,2-dihydroquinolin-3-yl]oxy}-N-methylacetamide], the IC50 in test [1] (read-out: IC50) is below 10 nM. This compound also came in with a Dmax in test [2] of at least 70%.

Take `CNC(=O)COc1cc2cc(Nc3nc(N4CCN(CC5CCN(c6ccc(C(=O)NC7CCC(=O)NC7=O)nn6)CC5)CC4)ncc3Cl)ccc2n(C)c1=O` (centres unmarked) [compound 278, 6-[4-({4-[5-chloro-4-({1-methyl-3-[(methylcarbamoyl)methoxy]-2-oxo-1,2-dihydroquinolin-6-yl}amino)pyrimidin-2-yl]piperazin-1-yl}methyl)piperidin-1-yl]-N-(2,6-dioxopiperidin-3-yl)pyridazine-3-carboxamide]: the EC50 in test [1] is below 10 nM. In test [2], this compound registered an IC50 of 50 to 100 nM and a Dmax below 50%.

Take `CNC(=O)COc1cc2cc(Nc3nc(N4CCCN(c5ccc6c(c5)C(=O)N(C5CCC(=O)NC5=O)C6=O)CC4)ncc3Cl)ccc2n(C)c1=O` (centres unmarked) [compound 208, 2-((6-((5-chloro-2-(4-(2-(2,6-dioxopiperidin-3-yl)-1,3-dioxoisoindolin-5-yl)-1,4-diazepan-1-yl)pyrimidin-4-yl)amino)-1-methyl-2-oxo-1,2-dihydroquinolin-3-yl)oxy)-N-methylacetamide]: in test [1], the EC50 was in the range of 50 to 100 nM. In test [2], the IC50 is 50 to 100 nM and the Dmax fell in the range of 50 to 70%.

On to `CC(=O)COc1cc2cc(Nc3nc(C#CC4CCN(c5ccc6c(c5)C(=O)N(C5CCC(=O)NC5=O)C6=O)CC4)ncc3Cl)ccc2n(C)c1=O` (centres unmarked) [compound 171, 5-(4-((5-chloro-4-((1-methyl-2-oxo-3-(2-oxopropoxy)-1,2-dihydroquinolin-6-yl)amino)pyrimidin-2-yl)ethynyl)piperidin-1-yl)-2-(2,6-dioxopiperidin-3-yl)isoindoline-1,3-dione], for which, in test [1] (setting [3]), the IC50 was 10 to 50 nM. In test [2] (maximum, class symbols A-C), this compound displayed a Dmax below 50%. Besides, the DC50 in test [2] was 10 to 50 nM.

As to `CC(=O)COc1cc2cc(Nc3nc(N4CCN(C5CCCN(c6ccc7c(c6)C(=O)N(C6CCC(=O)NC6=O)C7=O)C5)CC4)ncc3Cl)ccc2n(C)c1=O` (centres unmarked) [compound 161, 5-(3-(4-(5-chloro-4-((1-methyl-2-oxo-3-(2-oxopropoxy)-1,2-dihydroquinolin-6-yl)amino)pyrimidin-2-yl)piperazin-1-yl)piperidin-1-yl)-2-(2,6-dioxopiperidin-3-yl)isoindoline-1,3-dione], the IC50 in test [1] (setting [3]) lay within 10 to 50 nM. The Dmax in test [2] (maximum, class symbols A-C) was below 50%. For the same compound, the DC50 in test [2] lay within 10 to 50 nM.

As for `CNC(=O)COc1cc2cc(Nc3nc(N4CCC(CN5CC6(CCN(c7cccc8c7C(=O)N(C7CCC(=O)NC7=O)C8=O)C6)C5)CC4)ncc3Cl)ccc2n(C(C)C)c1=O` (centres unmarked) [compound 501, 2-{[6-({5-chloro-2-[4-({6-[2-(2,6-dioxopiperidin-3-yl)-1,3-dioxo-2,3-dihydro-1H-isoindol-4-yl]-2,6-diazaspiro[3.4]octan-2-yl}methyl)piperidin-1-yl]pyrimidin-4-yl}amino)-2-oxo-1-(propan-2-yl)-1,2-dihydroquinolin-3-yl]oxy}-N-methylacetamide], in test [1] (read-out: IC50), the IC50 was below 10 nM. In addition, in test [2], the Dmax was 50 to 70%.
